Laboratory results from paper PMC5566891, “Eukaryotic transporters for hydroxyderivatives of benzoic acid” (Scientific Reports, 2017).

Biological target: T1, Hbt2 (Hbt2p) (Lodderomyces parapsilosis, UniProt G8BG57)
T1 construct: native untagged full-length transporter in wild-type cells; assigned by knockout of HBT2
Assay: […]-substrate uptake, wild-type versus hbt2 knockout cells
Format: cell-based
Details: 50 µM, 50 mM Tris-HCl pH 7.5, 28 °C, labelled compound

T1 sequence (G8BG57 entry or part of it): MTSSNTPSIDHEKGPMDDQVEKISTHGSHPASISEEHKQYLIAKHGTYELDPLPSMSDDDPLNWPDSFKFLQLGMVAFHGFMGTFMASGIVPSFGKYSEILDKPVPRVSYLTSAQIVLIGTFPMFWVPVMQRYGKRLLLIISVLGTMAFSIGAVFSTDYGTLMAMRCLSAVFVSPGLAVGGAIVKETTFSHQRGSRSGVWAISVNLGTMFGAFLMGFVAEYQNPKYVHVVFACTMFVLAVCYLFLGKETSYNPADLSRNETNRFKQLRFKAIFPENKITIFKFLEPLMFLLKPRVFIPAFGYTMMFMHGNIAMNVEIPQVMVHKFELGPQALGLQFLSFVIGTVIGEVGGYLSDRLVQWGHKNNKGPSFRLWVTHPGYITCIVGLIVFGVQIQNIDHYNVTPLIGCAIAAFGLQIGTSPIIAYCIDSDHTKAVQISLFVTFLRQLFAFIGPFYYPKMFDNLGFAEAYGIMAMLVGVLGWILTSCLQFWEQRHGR

SMILES | 14C-substrate uptake, wild-type versus hbt2 knockout cells (cells grown on 4-hydroxybenzoate or hydroquinone) | 14C-substrate uptake, wild-type versus hbt2 knockout cells (cells grown on hydroquinone)
O=C(O)c1ccc(O)cc1 [4-hydroxybenzoate] | uptake of both substrates is impaired in the ∆hbt2/∆hbt2 mutant | –
O=C(O)c1ccc(O)c(O)c1 [protocatechuate] | – | uptake of both substrates is impaired in the ∆hbt2/∆hbt2 mutant
